The text below walks through data of patent publication US10517889B2, “Modulators of SMAD7 expression” (Ionis Pharmaceuticals, Inc., priority 2017, dated 2019).

Strand notation (5' to 3'): a small letter for the sugar, then the base; units joined by * are phosphorothioate-linked, units joined directly phosphodiester-linked; [ ] holds rarer units or linkages, { } end groups; capitals alone tell only the bases. e = 2'-O-(2-methoxyethyl) (MOE); [5mC] = 5-methylcytosine; d = 2'-deoxy (DNA)

For the series, the system named is human SMAD7 mRNA. Briefly: Antisense inhibition of human SMAD7 mRNA expression in Hep3B cells by 5-10-5 MOE gapmers, single concentration, electroporation, RT-PCR (Example 1, Study 1 and 2). Type of series: cell-based. The procedure, abridged:
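Readout is percent SMAD7 mRNA inhibition versus untreated cells, measured by qRT-PCR (RTS5062) and corrected for total RNA by RIBOGREEN. Oligonucleotide, 5,000 nM or 15,000 nM, was delivered by electroporation into Hep3B cells at 20,000 per well. RNA was collected about 24 h later.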

Setting [1] is: Study 2, electroporation with 15,000 nM antisense oligonucleotide, 5-10-5 MOE gapmers targeting SEQ ID NO: 1 and 2.
The mark [2] stands for this setting: electroporation, 15,000 nM, approximately 24 hours, relative to untreated control cells, gapmers targeting SEQ ID NO: 1 and 2.
[3] abbreviates: electroporation, 15,000 nM antisense oligonucleotide (Study 2), 5-10-5 MOE gapmers targeting SEQ ID NO: 1 and 2.
[4] abbreviates: electroporation with 15,000 nM antisense oligonucleotide (Study 2), 5-10-5 MOE gapmers targeting SEQ ID NO: 1 and 2.

As to “771759 (antisense eG*e[5mC]*eA*eT*eT*dA*d[5mC]*d[5mC]*dA*dG*dT*d[5mC]*d[5mC]*d[5mC]*d[5mC]*e[5mC]*eA*eT*eT*eA) [compound 771759]”, the “% Inhibition” value under setting [1] amounted to 26%.
Take “771511 (antisense eT*eT*eT*eG*eA*dA*dG*dT*dG*dT*dG*dG*d[5mC]*d[5mC]*dT*eG*e[5mC]*eT*e[5mC]*eA) [compound 771511]”: under setting [1], the “% inhibition of SMAD7 mRNA expression” value amounted to 31%.
In the case of “771893 (antisense eG*eT*e[5mC]*eA*eT*d[5mC]*d[5mC]*dG*dT*d[5mC]*d[5mC]*dA*d[5mC]*dT*dG*eT*e[5mC]*eT*eG*e[5mC]) [compound 771893]”, the “% inhibition of SMAD7 mRNA expression” value under setting [2] came out at 35%.
In the case of “771765 (antisense e[5mC]*e[5mC]*eA*eA*eG*d[5mC]*d[5mC]*dA*dG*dG*dA*dG*d[5mC]*dT*dG*e[5mC]*eT*eT*eA*eA) [compound 771765]”, under setting [2], the “% inhibition of SMAD7 mRNA expression” value is 48%.
Take “771698 (antisense e[5mC]*eA*e[5mC]*eA*e[5mC]*dT*d[5mC]*dT*d[5mC]*d[5mC]*d[5mC]*dA*dG*dG*dA*eG*eG*eG*eT*eA) [compound 771698]”: the “% inhibition of SMAD7 mRNA expression” value under setting [3] was 43%.
Still for that read-out and setting: the same measure for “771809 (antisense eA*e[5mC]*e[5mC]*eT*eG*dA*dG*dT*d[5mC]*d[5mC]*d[5mC]*d[5mC]*d[5mC]*dA*dA*eA*eG*eT*e[5mC]*e[5mC]) [compound 771809]”: 7%.
Still for that read-out and setting: the same measure for “771561 (antisense e[5mC]*eA*e[5mC]*eT*e[5mC]*d[5mC]*dT*dG*dA*d[5mC]*dA*dA*dG*dT*dG*eA*eA*eA*eT*eG) [compound 771561]”: 30%.
Turning to “771800 (antisense eG*eA*e[5mC]*eA*eG*d[5mC]*dA*dG*dA*d[5mC]*dA*dG*dG*d[5mC]*dA*eA*eA*eA*eT*eG) [compound 771800]”, the “% Inhibition of SMAD7 mRNA” value under setting [4] was determined as 32%. Under setting [3], the “% inhibition of SMAD7 mRNA expression” value worked out at 12%.
Turning to “771919 (antisense e[5mC]*eA*eA*eT*eG*dG*d[5mC]*dA*d[5mC]*dA*dG*dG*dG*dT*dG*eA*e[5mC]*e[5mC]*eA*eG) [compound 771919]”, the “% Inhibition” value under setting [1] was determined as 29%.
Turning to “771354 (antisense e[5mC]*eG*eG*e[5mC]*e[5mC]*dT*dT*d[5mC]*d[5mC]*dA*dT*d[5mC]*d[5mC]*dA*dA*e[5mC]*eT*e[5mC]*eT*e[5mC]) [compound 771354]”, the “% Inhibition” value under setting [1] stood at 39%.
Take “771792 (antisense eA*eG*e[5mC]*eA*e[5mC]*dA*d[5mC]*d[5mC]*d[5mC]*d[5mC]*dA*d[5mC]*d[5mC]*d[5mC]*d[5mC]*e[5mC]*eA*e[5mC]*e[5mC]*eT) [compound 771792]”: the “% Inhibition of SMAD7 mRNA” value under setting [4] was 33%. Moreover, the “% inhibition of SMAD7 mRNA expression” value under setting [3] turned out to be 2%.
As to “771665 (antisense eA*eA*eT*eG*e[5mC]*dT*dA*dA*dA*dT*dT*dT*d[5mC]*d[5mC]*dA*eA*eT*eG*eA*eG) [compound 771665]”, the “% inhibition of SMAD7 mRNA expression” value under setting [4] is 24%.
On to “771604 (antisense e[5mC]*e[5mC]*eT*eT*eG*dG*dG*dA*dA*dG*d[5mC]*d[5mC]*d[5mC]*dA*dT*e[5mC]*eT*e[5mC]*eA*eG) [compound 771604]”, for which the “% inhibition of SMAD7 mRNA expression” value under setting [1] is given as 12%.
“771844 (antisense eG*eA*eA*eG*eG*dA*d[5mC]*d[5mC]*dA*dA*dG*dT*d[5mC]*d[5mC]*d[5mC]*eT*e[5mC]*eT*e[5mC]*e[5mC]) [compound 771844]”: the “% Inhibition” value under setting [1] is recorded as 0%.
With “771676 (antisense eT*eG*eT*eT*eT*dA*dT*dA*d[5mC]*dA*d[5mC]*dA*dT*dT*dG*e[5mC]*eA*e[5mC]*eA*eA) [compound 771676]”, the “% inhibition of SMAD7 mRNA expression” value under setting [1] was 2%.
As for “771393 (antisense eG*e[5mC]*eT*e[5mC]*e[5mC]*dG*dG*d[5mC]*dT*dG*d[5mC]*d[5mC]*d[5mC]*d[5mC]*dA*e[5mC]*e[5mC]*e[5mC]*e[5mC]*eG) [compound 771393]”, the “% Inhibition” value under setting [1] turned out to be 0%.
As for “771517 (antisense e[5mC]*eT*e[5mC]*eA*eG*dG*dA*dG*dG*dA*dA*dA*dA*dT*dA*eT*eT*eA*eG*e[5mC]) [compound 771517]”, the “% inhibition of SMAD7 mRNA expression” value under setting [2] was 25%.
Regarding “771527 (antisense eG*eA*eG*eT*eT*dT*dG*d[5mC]*dA*dT*dG*dA*dA*dA*dA*eG*e[5mC]*eA*eA*eG) [compound 771527]”, the “% inhibition of SMAD7 mRNA expression” value under setting [1] is recorded as 0%.
For the substance “771508 (antisense e[5mC]*e[5mC]*eT*eG*e[5mC]*dT*d[5mC]*dA*dG*d[5mC]*dT*d[5mC]*dA*d[5mC]*dG*e[5mC]*eT*e[5mC]*eT*eG) [compound 771508]”, under setting [1], the “% inhibition of SMAD7 mRNA expression” value amounted to 8%.
In the case of “771637 (antisense eT*eG*eG*eT*eA*d[5mC]*d[5mC]*dT*dT*dG*dG*dG*dT*dT*dA*eT*eG*eA*e[5mC]*eG) [compound 771637]”, the “% inhibition of SMAD7 mRNA expression” value under setting [2] was found to be 23%.
For the substance “771501 (antisense eG*e[5mC]*eA*e[5mC]*eG*d[5mC]*dG*dG*d[5mC]*dT*dA*d[5mC]*d[5mC]*dG*dG*e[5mC]*eT*eG*eT*eT) [compound 771501]”, under setting [1], the “% inhibition of SMAD7 mRNA expression” value is reported as 16%.
Still for that read-out and setting: the same measure for “771472 (antisense eA*eT*eT*eT*eT*dG*d[5mC]*dT*d[5mC]*d[5mC]*dG*d[5mC]*dA*d[5mC]*d[5mC]*eT*eT*e[5mC]*eT*eG) [compound 771472]”: 0%.
In the case of “771748 (antisense eA*e[5mC]*e[5mC]*e[5mC]*e[5mC]*d[5mC]*dA*d[5mC]*dA*dT*dT*dA*dA*dA*d[5mC]*eA*eT*eA*eA*eT) [compound 771748]”, the “% Inhibition” value under setting [1] is on record as 0%.
In the case of “771729 (antisense eT*eG*e[5mC]*eT*e[5mC]*d[5mC]*dA*dG*d[5mC]*dT*d[5mC]*d[5mC]*dA*dG*dA*e[5mC]*e[5mC]*eT*eG*eG) [compound 771729]”, under setting [3], the “% inhibition of SMAD7 mRNA expression” value was determined as 35%.
In the case of “771378 (antisense eA*eT*e[5mC]*eT*eT*dT*dA*dA*dG*d[5mC]*dA*d[5mC]*dG*d[5mC]*dT*e[5mC]*eT*eA*eA*eA) [compound 771378]”, the “% Inhibition” value under setting [1] is listed as 22%.
Turning to “771921 (antisense eT*e[5mC]*e[5mC]*eT*e[5mC]*d[5mC]*d[5mC]*dT*dT*dT*dA*dA*dA*dG*dG*eG*eA*eA*eG*eG) [compound 771921]”, the “% inhibition of SMAD7 mRNA expression” value under setting [3] was found to be 14%.
On the same count and under the same terms, the same measure for “771801 (antisense eA*e[5mC]*e[5mC]*eT*eA*d[5mC]*dA*dA*d[5mC]*dT*d[5mC]*dA*d[5mC]*dA*dA*eG*eG*eG*eA*eG) [compound 771801]”: 31%.
Consider “771752 (antisense eA*eA*eT*eG*eT*d[5mC]*d[5mC]*d[5mC]*dT*dG*dT*dG*dG*dG*dT*eT*eT*e[5mC]*e[5mC]*eA) [compound 771752]”, for which the “% Inhibition of SMAD7 mRNA” value under setting [4] is listed as 3%. Moreover, the “% inhibition of SMAD7 mRNA expression” value under setting [3] is 0%.
For the substance “771620 (antisense e[5mC]*eA*e[5mC]*eA*e[5mC]*dA*dG*dG*dA*dT*dG*dG*dG*dA*dG*e[5mC]*eA*eG*eG*e[5mC]) [compound 771620]”, under setting [1], the “% inhibition of SMAD7 mRNA expression” value is on record as 12%.
For the substance “771536 (antisense eA*eG*e[5mC]*eG*eA*dA*dA*d[5mC]*dA*dA*dA*dA*d[5mC]*dA*dG*eA*eA*e[5mC]*eA*e[5mC]) [compound 771536]”, the “% Inhibition of SMAD7 mRNA” value under setting [4] worked out at 25%. Under setting [3], the “% inhibition of SMAD7 mRNA expression” value worked out at 0%.
On to “771602 (antisense eG*eG*eA*eG*eA*dT*d[5mC]*d[5mC]*dA*dG*dG*dA*dG*d[5mC]*dA*eG*eA*eT*eG*eG) [compound 771602]”, for which the “% inhibition of SMAD7 mRNA expression” value under setting [4] was 39%.
On to “771845 (antisense eT*eT*e[5mC]*e[5mC]*eA*dA*dG*d[5mC]*dA*d[5mC]*dG*dG*dA*dG*dT*e[5mC]*eA*eG*e[5mC]*e[5mC]) [compound 771845]”, for which the “% inhibition of SMAD7 mRNA expression” value under setting [2] amounted to 39%.
Regarding “771707 (antisense eT*eT*eG*eT*eT*d[5mC]*d[5mC]*dT*d[5mC]*dT*dG*d[5mC]*dA*d[5mC]*d[5mC]*e[5mC]*eT*eG*eG*eG) [compound 771707]”, under setting [1], the “% Inhibition” value stood at 42%. Moreover, the “% inhibition of SMAD7 mRNA expression” value (electroporation, 5,000 nM, approximately 24 hours, relative to untreated control cells, gapmers targeting SEQ ID NO: 1 and 2) is 0%.
For “771431 (eG*e[5mC]*e[5mC]*e[5mC]*e[5mC]*d[5mC]*dG*dG*d[5mC]*d[5mC]*dG*d[5mC]*dG*d[5mC]*d[5mC]*eG*eG*e[5mC]*eG*e[5mC]; antisense) [compound 771431]”, the “% Inhibition” value under setting [1] stood at 37%.
For the substance “771568 (antisense e[5mC]*eT*eG*e[5mC]*eA*dA*dA*d[5mC]*d[5mC]*dT*d[5mC]*dT*d[5mC]*dT*dG*e[5mC]*eT*eG*eG*eG) [compound 771568]”, the “% Inhibition of SMAD7 mRNA” value under setting [4] was 26%. Further, the “% inhibition of SMAD7 mRNA expression” value under setting [3] came out at 17%.
With “771477 (antisense eT*eG*e[5mC]*eG*eG*dT*dT*dG*dT*dA*d[5mC]*dA*d[5mC]*d[5mC]*d[5mC]*eA*e[5mC]*eA*e[5mC]*eA) [compound 771477]”, the “% inhibition of SMAD7 mRNA expression” value under setting [1] turned out to be 20%.
On to “771712 (antisense eA*eT*eT*e[5mC]*eT*dT*dT*dT*dA*dG*d[5mC]*d[5mC]*d[5mC]*dA*dA*e[5mC]*eT*eG*eT*eT) [compound 771712]”, for which the “% Inhibition of SMAD7 mRNA” value under setting [4] is given as 27%. Further, the “% inhibition of SMAD7 mRNA expression” value under setting [3] was 3%.
As to “771655 (antisense eA*eG*eT*e[5mC]*eT*dA*dA*dA*d[5mC]*dA*dT*dG*d[5mC]*dT*d[5mC]*eA*eT*eT*eG*eA) [compound 771655]”, the “% inhibition of SMAD7 mRNA expression” value under setting [1] is on record as 14%.
Turning to “771706 (antisense eG*eG*eG*e[5mC]*e[5mC]*dT*dG*dG*dA*d[5mC]*d[5mC]*dA*dA*dA*dT*e[5mC]*e[5mC]*eA*eA*e[5mC]) [compound 771706]”, the “% inhibition of SMAD7 mRNA expression” value under setting [3] was 22%.
